Patent US9963467B2, “Boronic acid derivatives and therapeutic uses thereof” (Rempex Pharmaceuticals, Inc., priority 2014, dated 2018)

What was measured:
KP1009 (CTX-M-15) [1] = experiment: organism not typed; format: cell-based
KP1004 (KPC-2) [2] = experiment: Biapenem potentiation (MPC@1), KP1004; details: BLI with biapenem at 1 μg/mL
ECL1002 [3] = experiment: Tigemonam potentiation (MPC@4), ECL1002; format: cell-based; details: BLI with tigemonam at 4 μg/mL
KP1004 (KPC-2) [4] = experiment: Aztreonam potentiation (MPC@4), KP1004; format: cell-based; details: BLI with aztreonam at 4 μg/mL
CTX-M-14 = CTX-M-14 (Escherichia coli, UniProt Q9L5C7); experiment: Ki, nitrocefin cleavage by purified enzyme, CTX-M-14; format: biochemical; details: nitrocefin reporter substrate; read-out: Ki (CTX-M-14, NCF)
Chain of CTX-M-14 (Q9L5C7 29-291): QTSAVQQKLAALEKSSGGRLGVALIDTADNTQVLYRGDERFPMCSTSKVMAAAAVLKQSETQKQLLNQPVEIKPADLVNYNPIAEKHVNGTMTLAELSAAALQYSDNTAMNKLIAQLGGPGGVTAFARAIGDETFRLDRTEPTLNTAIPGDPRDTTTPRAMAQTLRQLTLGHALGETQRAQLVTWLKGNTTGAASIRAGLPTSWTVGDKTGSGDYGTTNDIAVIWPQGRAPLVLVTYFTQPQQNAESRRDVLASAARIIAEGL
Outline: (§1)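 Purified enzyme was preincubated with a range of inhibitor concentrations in reaction buffer for 10 min at room temperature. Nitrocefin was then added and its cleavage followed at 490 nm every 10 sec for 10 min.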

ECL1002 [5] = experiment: Aztreonam potentiation (MPC@4), ECL1002; format: cell-based; details: BLI with aztreonam at 4 μg/mL
KP1010 (SHV-12) = experiment: Tigemonam potentiation (MPC@4), KP1010; format: cell-based
ec308 (SHV-5) = experiment: Tigemonam potentiation (MPC@4), ec308; format: cell-based
KP1005 (CTX-M-14) [6] = experiment: Tigemonam potentiation (MPC@4), KP1005; format: cell-based; details: BLI with tigemonam at 4 μg/mL
Pa AmpC = Pa AmpC (Pseudomonas aeruginosa, UniProt P24735); experiment: Ki, nitrocefin cleavage by purified enzyme, Pa AmpC; format: biochemical; details: nitrocefin reporter substrate; read-out: Ki (Pa AmpC, NCF)
Chain of Pa AmpC (P24735 27-397): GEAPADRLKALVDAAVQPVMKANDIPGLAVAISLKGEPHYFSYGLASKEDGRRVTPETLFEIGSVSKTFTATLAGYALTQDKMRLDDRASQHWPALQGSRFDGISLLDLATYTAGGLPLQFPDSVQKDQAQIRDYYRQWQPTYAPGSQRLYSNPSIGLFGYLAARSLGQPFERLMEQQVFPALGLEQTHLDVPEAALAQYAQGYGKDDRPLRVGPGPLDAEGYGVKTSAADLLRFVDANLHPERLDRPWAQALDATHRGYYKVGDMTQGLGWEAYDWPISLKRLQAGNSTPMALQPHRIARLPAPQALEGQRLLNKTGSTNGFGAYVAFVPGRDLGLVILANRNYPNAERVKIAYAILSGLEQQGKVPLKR
Outline: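 Purified enzyme was preincubated with inhibitor at a range of concentrations in reaction buffer for 10 min at room temperature. Nitrocefin was then added as reporter substrate and its cleavage followed at 490 nm every 10 sec over 10 min; Ki was derived spectrophotometrically.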

ec302 (TEM-10) [7] = experiment: Tigemonam potentiation (MPC@4), ec302; format: cell-based
KPC-2 = KPC-2 (Klebsiella pneumoniae, UniProt Q9F663); experiment: Ki, nitrocefin cleavage by purified enzyme, KPC-2; format: biochemical; details: nitrocefin reporter substrate; read-out: Ki (KPC-2, NCF)
Chain of KPC-2 (Q9F663 25-293, looked up, species assumed): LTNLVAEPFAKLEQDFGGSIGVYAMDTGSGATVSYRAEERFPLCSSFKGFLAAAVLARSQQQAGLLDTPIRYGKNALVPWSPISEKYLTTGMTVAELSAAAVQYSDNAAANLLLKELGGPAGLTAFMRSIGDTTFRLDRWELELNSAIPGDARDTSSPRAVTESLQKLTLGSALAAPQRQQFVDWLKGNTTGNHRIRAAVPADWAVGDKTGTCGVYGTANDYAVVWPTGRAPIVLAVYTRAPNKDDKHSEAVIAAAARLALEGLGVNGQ
Outline: as §1

KP1086 (OXA-48) = experiment: Biapenem potentiation (MPC@1), KP1086; details: BLI with biapenem at 1 μg/mL
EC1010 (CMY-6) [8] = experiment: Tigemonam potentiation (MPC@4), EC1010; format: cell-based; details: BLI with tigemonam at 4 μg/mL
OXA-48 = OXA-48 (Klebsiella pneumoniae, UniProt Q6XEC0); experiment: Ki, nitrocefin cleavage by purified enzyme, OXA-48; format: biochemical; details: nitrocefin reporter substrate; read-out: Ki (OXA-48, NCF)
Chain of OXA-48 (Q6XEC0 23-265, looked up, species assumed): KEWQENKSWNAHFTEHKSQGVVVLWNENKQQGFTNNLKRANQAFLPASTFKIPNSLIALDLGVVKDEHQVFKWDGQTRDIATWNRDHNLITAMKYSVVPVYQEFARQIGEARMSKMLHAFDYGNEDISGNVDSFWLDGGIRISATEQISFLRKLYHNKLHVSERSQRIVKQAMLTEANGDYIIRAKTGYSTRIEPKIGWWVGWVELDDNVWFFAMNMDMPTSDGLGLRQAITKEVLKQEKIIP
Outline: as §1

P99 = P99 (Enterobacter cloacae, UniProt P05364); experiment: Ki, nitrocefin cleavage by purified enzyme, P99; format: biochemical; details: nitrocefin reporter substrate; read-out: Ki (P99, NCF)
Chain of P99 (P05364 21-381): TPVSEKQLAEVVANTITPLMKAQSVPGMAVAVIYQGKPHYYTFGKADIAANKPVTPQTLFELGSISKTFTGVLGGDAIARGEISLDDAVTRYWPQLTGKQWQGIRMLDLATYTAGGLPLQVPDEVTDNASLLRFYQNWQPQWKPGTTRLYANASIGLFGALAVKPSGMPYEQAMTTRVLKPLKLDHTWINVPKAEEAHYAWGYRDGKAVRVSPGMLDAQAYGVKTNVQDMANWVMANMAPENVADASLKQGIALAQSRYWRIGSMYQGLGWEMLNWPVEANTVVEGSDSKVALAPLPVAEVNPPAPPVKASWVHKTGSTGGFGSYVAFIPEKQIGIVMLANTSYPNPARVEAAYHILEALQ
Outline: as §1

KP1005 (CTX-M-14) [9] = experiment: Aztreonam potentiation (MPC@4), KP1005; format: cell-based; details: BLI with aztreonam at 4 μg/mL
SHV-12 = SHV-12 (Klebsiella pneumoniae, UniProt P0AD64, E235K/G234S/L31Q); experiment: Ki, nitrocefin cleavage by purified enzyme, SHV-12; format: biochemical; details: nitrocefin reporter substrate; read-out: Ki (SHV-12, NCF)
Chain of SHV-12 (P0AD64 22-286 L31Q/G234S/E235K): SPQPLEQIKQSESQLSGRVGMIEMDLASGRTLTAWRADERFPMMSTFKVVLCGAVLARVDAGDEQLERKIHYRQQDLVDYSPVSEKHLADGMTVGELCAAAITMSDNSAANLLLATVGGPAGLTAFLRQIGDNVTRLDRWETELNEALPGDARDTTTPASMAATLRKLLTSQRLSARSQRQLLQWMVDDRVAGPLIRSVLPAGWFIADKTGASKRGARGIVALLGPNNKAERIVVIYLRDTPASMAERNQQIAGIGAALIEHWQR
Outline: as §1

KP1009 (CTX-M-15) [10] = experiment: Tigemonam potentiation (MPC@4), KP1009; format: cell-based; details: BLI with tigemonam at 4 μg/mL
EC1010 (CMY-6) [11] = experiment: organism not typed; format: cell-based
ec302 (TEM-10) [12] = experiment: Aztreonam potentiation (MPC@4), ec302; format: cell-based; details: BLI with aztreonam at 4 μg/mL

| Structure (SMILES) | AZT MPC4 CTX-M-15 KP1009 (KP1009 (CTX-M-15) [1]) | BPM MPC1 KP1004 KPC-2 (KP1004 (KPC-2) [2]) | TIG MPC4 ECL1002 (ECL1002 [3]) | AZT MPC4 KPC-2 KP1004 (KP1004 (KPC-2) [4]) | Ki (CTX-M-14) [nM] | AZT MPC4 ECL1002 (ECL1002 [5]) | TIG MPC4 SHV-12 KP1010 (KP1010 (SHV-12)) | TIG MPC4 SHV-5 ec308 (ec308 (SHV-5)) | TIG MPC4 CTX-M-14 KP1005 (KP1005 (CTX-M-14) [6]) | Ki (Pa AmpC) [nM] | TIG MPC4 TEM-10 ec302 (ec302 (TEM-10) [7]) | Ki (KPC-2) [nM] | BPM MPC1 OXA-48 KP1086 (KP1086 (OXA-48)) | TIG MPC4 CMY-6 EC1010 (EC1010 (CMY-6) [8]) | Ki (OXA-48) [nM] | Ki (P99) [nM] | Ki (SHV-12) [nM] | TIG MPC4 CTX-M-15 KP1009 (KP1009 (CTX-M-15) [10]) | AZT MPC4 CMY-6 EC1010 (EC1010 (CMY-6) [11]) | AZT MPC4 TEM-10 ec302 (ec302 (TEM-10) [12]) | other results |
| --- | --- | --- | --- | --- | --- | --- | --- | --- | --- | --- | --- | --- | --- | --- | --- | --- | --- | --- | --- | --- | --- |
| CSCC(=O)N[C@H]1Cc2ccc(OCC(=O)O)c(C(=O)O)c2OB1O [Compound 33, (R)-7-(carboxymethoxy)-2-hydroxy-3-(2-(methylthio)acetamido)-3,4-dihydro-2H-benzo[e][1,2]oxaborinine-8-carboxylic acid] | Y (key: X: MIC of less than 1 ng/mL; Y: MIC of 1 μg/mL to 10 μg/mL; Z: MIC of greater than 10 μg/mL) | X (MIC of less than 1 μg/mL) | Y (MIC of 1 μg/mL to 10 μg/mL) | Y (MIC of 1 μg/mL to 10 μg/mL) | < 1 | Y (MIC of 1 μg/mL to 10 μg/mL) | X (key: X: MIC of less than 1 μg/mL; Y: MIC of 1 μg/mL to 10 μg/mL; Z: MIC of greater than 10 μg/mL) | Y (key: X: MIC of less than 1 ng/mL; Y: MIC of 1 μg/mL to 10 μg/mL; Z: MIC of greater than 10 μg/mL) | Y (MIC of 1 μg/mL to 10 μg/mL) | > 10 | Z (key: X: MIC of less than 1 ng/mL; Y: MIC of 1 μg/mL to 10 μg/mL; Z: MIC of greater than 10 μg/mL) | > 10 | Z (MIC of greater than 10 μg/mL) | Y (MIC of 1 μg/mL to 10 μg/mL) | < 1 | > 10 | < 1 | Y (MIC of 1 μg/mL to 10 μg/mL) | Y (key: X: MIC of less than 1 ng/mL; Y: MIC of 1 μg/mL to 10 μg/mL; Z: MIC of greater than 10 μg/mL) | Y (MIC of 1 μg/mL to 10 μg/mL) | AZT MPC4 CTX-M-14 KP1005 (KP1005 (CTX-M-14) [9]): Y (MIC of 1 μg/mL to 10 μg/mL) |
| CSCC(=O)N[C@H]1Cc2ccc(SCCO)c(C(=O)O)c2OB1O [Compound 23, (R)-2-hydroxy-7-(2-hydroxyethylthio)-3-(2-(methylthio)acetamido)-3,4-dihydro-2H-benzo[e][1,2]oxaborinine-8-carboxylic acid] | Y (key: X: MIC of less than 1 ng/mL; Y: MIC of 1 μg/mL to 10 μg/mL; Z: MIC of greater than 10 μg/mL) | X (MIC of less than 1 μg/mL) | X (MIC of less than 1 μg/mL) | Y (MIC of 1 μg/mL to 10 μg/mL) | < 1 | Y (MIC of 1 μg/mL to 10 μg/mL) | X (key: X: MIC of less than 1 μg/mL; Y: MIC of 1 μg/mL to 10 μg/mL; Z: MIC of greater than 10 μg/mL) | X (key: X: MIC of less than 1 μg/mL; Y: MIC of 1 μg/mL to 10 μg/mL; Z: MIC of greater than 10 μg/mL) | X (MIC of less than 1 μg/mL) | > 10 | Y (key: X: MIC of less than 1 ng/mL; Y: MIC of 1 μg/mL to 10 μg/mL; Z: MIC of greater than 10 μg/mL) | > 10 | Z (MIC of greater than 10 μg/mL) | Y (MIC of 1 μg/mL to 10 μg/mL) | < 1 | > 10 | < 1 | Y (MIC of 1 μg/mL to 10 μg/mL) | Y (key: X: MIC of less than 1 ng/mL; Y: MIC of 1 μg/mL to 10 μg/mL; Z: MIC of greater than 10 μg/mL) | Y (MIC of 1 μg/mL to 10 μg/mL) | – |
| COc1ccc2c(c1C(=O)O)OB(O)[C@@H](NC(=O)c1nnc(N)s1)C2 [Compound 28, (R)-3-(5-amino-1,3,4-thiadiazole-2-carboxamido)-2-hydroxy-7-methoxy-3,4-dihydro-2H-benzo[e][1,2]oxaborinine-8-carboxylic acid] | Y (key: X: MIC of less than 1 ng/mL; Y: MIC of 1 μg/mL to 10 μg/mL; Z: MIC of greater than 10 μg/mL) | Y (MIC of 1 μg/mL to 10 μg/mL) | Y (MIC of 1 μg/mL to 10 μg/mL) | Y (MIC of 1 μg/mL to 10 μg/mL) | < 1 | Y (MIC of 1 μg/mL to 10 μg/mL) | X (key: X: MIC of less than 1 μg/mL; Y: MIC of 1 μg/mL to 10 μg/mL; Z: MIC of greater than 10 μg/mL) | X (key: X: MIC of less than 1 μg/mL; Y: MIC of 1 μg/mL to 10 μg/mL; Z: MIC of greater than 10 μg/mL) | Y (MIC of 1 μg/mL to 10 μg/mL) | 1 to 10 | Y (key: X: MIC of less than 1 ng/mL; Y: MIC of 1 μg/mL to 10 μg/mL; Z: MIC of greater than 10 μg/mL) | > 10 | Z (MIC of greater than 10 μg/mL) | X (MIC of less than 1 μg/mL) | < 1 | 1 to 10 | < 1 | Y (MIC of 1 μg/mL to 10 μg/mL) | – | Y (MIC of 1 μg/mL to 10 μg/mL) | AZT MPC4 CTX-M-14 KP1005 (KP1005 (CTX-M-14) [9]): Y (MIC of 1 μg/mL to 10 μg/mL) |
| CSCC(=O)N[C@H]1Cc2ccc(O)c(C(=O)O)c2OB1O [Compound 34, (R)-2,7-dihydroxy-3-(2-(methylthio)acetamido)-3,4-dihydro-2H-benzo[e][1,2]oxaborinine-8-carboxylic acid] | Y (key: X: MIC of less than 1 ng/mL; Y: MIC of 1 μg/mL to 10 μg/mL; Z: MIC of greater than 10 μg/mL) | X (MIC of less than 1 μg/mL) | X (MIC of less than 1 μg/mL) | Y (MIC of 1 μg/mL to 10 μg/mL) | < 1 | Y (MIC of 1 μg/mL to 10 μg/mL) | X (key: X: MIC of less than 1 μg/mL; Y: MIC of 1 μg/mL to 10 μg/mL; Z: MIC of greater than 10 μg/mL) | X (key: X: MIC of less than 1 μg/mL; Y: MIC of 1 μg/mL to 10 μg/mL; Z: MIC of greater than 10 μg/mL) | X (MIC of less than 1 μg/mL) | > 10 | Y (key: X: MIC of less than 1 ng/mL; Y: MIC of 1 μg/mL to 10 μg/mL; Z: MIC of greater than 10 μg/mL) | > 10 | Y (MIC of 1 μg/mL to 10 μg/mL) | X (MIC of less than 1 μg/mL) | < 1 | 1 to 10 | < 1 | Y (MIC of 1 μg/mL to 10 μg/mL) | Y (key: X: MIC of less than 1 ng/mL; Y: MIC of 1 μg/mL to 10 μg/mL; Z: MIC of greater than 10 μg/mL) | Y (MIC of 1 μg/mL to 10 μg/mL) | – |
| CSCC(=O)N[C@H]1Cc2ccc(OCCO)c(C(=O)O)c2OB1O [Compound 20, (R)-2-hydroxy-7-(2-hydroxyethoxy)-3-(2-(methylthio)acetamido)-3,4-dihydro-2H-benzo[e][1,2]oxaborinine-8-carboxylic acid] | Y (key: X: MIC of less than 1 ng/mL; Y: MIC of 1 μg/mL to 10 μg/mL; Z: MIC of greater than 10 μg/mL) | X (MIC of less than 1 μg/mL) | X (MIC of less than 1 μg/mL) | Y (MIC of 1 μg/mL to 10 μg/mL) | < 1 | Y (MIC of 1 μg/mL to 10 μg/mL) | X (key: X: MIC of less than 1 μg/mL; Y: MIC of 1 μg/mL to 10 μg/mL; Z: MIC of greater than 10 μg/mL) | X (key: X: MIC of less than 1 μg/mL; Y: MIC of 1 μg/mL to 10 μg/mL; Z: MIC of greater than 10 μg/mL) | Y (MIC of 1 μg/mL to 10 μg/mL) | > 10 | Z (key: X: MIC of less than 1 ng/mL; Y: MIC of 1 μg/mL to 10 μg/mL; Z: MIC of greater than 10 μg/mL) | > 10 | Z (MIC of greater than 10 μg/mL) | X (MIC of less than 1 μg/mL) | < 1 | > 10 | < 1 | X (MIC of less than 1 μg/mL) | Y (key: X: MIC of less than 1 ng/mL; Y: MIC of 1 μg/mL to 10 μg/mL; Z: MIC of greater than 10 μg/mL) | Y (MIC of 1 μg/mL to 10 μg/mL) | – |
